Data: patent US5051438A, “Alkoxy-substituted dihydrobenzopyran-2-carboxylic acids and derivatives thereof, compositions and use” (G. D. Searle & Co., priority 1990, dated 1991)

Key:
LTB4 Receptor = biological target: T1, LTB4 Receptor (Homo sapiens, UniProt Q15722); experiment: LTB4 Receptor Binding Assay; conditions: potency relative to compound of Example 1(b), defined as 1.0; 0.6×10^-9 M (^3H) LTB4, human neutrophils, 0° C, 45 minutes
T1 construct: Neutrophils were purified from venous blood of normal human donors; endogenous in cells; host or cells: neutrophils from venous blood of normal human donors (>95% pure)
T1 sequence (Q15722 whole entry): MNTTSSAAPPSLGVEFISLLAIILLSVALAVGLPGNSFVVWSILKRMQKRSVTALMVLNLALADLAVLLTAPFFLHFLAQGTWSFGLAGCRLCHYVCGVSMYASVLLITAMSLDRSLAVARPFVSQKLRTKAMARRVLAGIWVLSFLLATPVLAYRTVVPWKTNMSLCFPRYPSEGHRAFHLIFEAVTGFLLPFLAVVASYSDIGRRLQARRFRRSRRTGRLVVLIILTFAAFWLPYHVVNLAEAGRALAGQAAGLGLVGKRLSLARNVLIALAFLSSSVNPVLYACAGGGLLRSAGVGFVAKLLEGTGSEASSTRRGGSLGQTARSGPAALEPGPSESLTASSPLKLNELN
Experimental: Neutrophils were purified from venous blood of normal human donors using standard techniques of dextran sedimentation, centrifugation on Ficoll-paque® (Pharmacia) or Histopaque® sterile solution (Sigma) and hypotonic lysis of erythrocytes (Boyum, A., Isolation of Leukocytes From Human Blood: Further Observations. Scand. J. Lab. Clin. Invest., 21 (Suppl. 97): 31, 1968). […] The incubation was carried out at 0° C. for 45 minutes and terminated by adding 5 ml of ice-cold HBSS followed by rapid filtration of incubation mixture under vacuum through GF/C glass fiber filters. The filters were further washed with 10 ml HBSS and radioactivity was determined. […] All data refer to specific binding. […] Pat. No. 4,889,871.

Human neutrophils [1] = experiment: Modified Boyden Chamber Chemotaxis, fMLP-induced; type: cell-based; conditions: 1.0×10^-8 M fMLP, 90 minutes, 37° C; for Relative Potency, Chemotaxis fMLP: potency relative to compound of Example 1(b), defined as 1.0
Text: (§1) Neutrophils were purified from venous blood of normal human donors using standard techniques of dextran sedimentation, centrifugation on Ficoll-paque® (Pharmacia) or Histopaque® sterile solution (Sigma) and hypotonic lysis of erythrocytes (Boyum, A., Isolation of Leukocytes From Human Blood: Further Observations. Scand. J. Lab. Clin. Invest., 21 (Suppl. 97): 31, 1968). The purity of isolated neutrophils was >95%. […] A final cell suspension of 3.4×10^6 neutrophils/ml of HEPES-buffered Hanks' balanced salt solution (HBSS, pH 7.3) was added to the upper well (0.8 ml) of a modified Boyden chamber (blind well). […] Following a 90 minute incubation at 37° C. in 5% CO2 -95% air, cells from the lower well were lysed and nuclei counted in a Model S-Plus-IV Coulter Counter. Percent inhibition was calculated from cell counts corrected for random migration by subtracting the mean of the HBSS control. […] Pat. No. 4,889,871.

Human neutrophils [2] = experiment: Modified Boyden Chamber Chemotaxis, LTB4-induced; type: cell-based; conditions: 3×10^-8 M LTB4, 90 minutes, 37° C; for Relative Potency, Chemotaxis LTB4: potency relative to compound of Example 1(b), defined as 1.0
Text: as §1

[3] = Homo sapiens, Neutrophil, 1.5 h, value in parentheses

| Relative Potency, LTB4 Receptor Binding (LTB4 Receptor) | IC50 (Human neutrophils [1]; [3]) | IC50 (Human neutrophils [2]; [3]) | SMILES | Relative Potency, Chemotaxis fMLP (Human neutrophils [1]) | Relative Potency, Chemotaxis LTB4 (Human neutrophils [2]) |
| --- | --- | --- | --- | --- | --- |
| 0.88 | – | – | CCCc1c(OCCCOc2ccc(-c3cc[nH]n3)c(OC)c2CCC)ccc2c1OC(C(=O)O)CC2 (centres unmarked) [Example 6, 3,4-Dihydro-7-[3-[3-methoxy-2-propyl-4-(1H-pyrazol-3-yl)phenoxy]propoxy]-8-propyl-2H-1-benzopyran-2-carboxylic acid] | 0.35 | 0.66 |
| – | 5.4 µM | 1.8 µM | CCCc1c(OCCCOc2ccc(C(C)=O)c(OC)c2CCC)ccc2c1OC(C(=O)O)CC2 (centres unmarked) [Example 1(b), 7-[3-(4-acetyl-3-methoxy-2-propylphenoxy)propoxy]-3,4-dihydro-8-propyl-2H-1-benzopyran-2-carboxylic acid, reference compound] | – | – |
| 0.70 | – | – | CCCc1c(OCCCOc2ccc(-c3ccon3)c(OC)c2CCC)ccc2c1OC(C(=O)O)CC2 (centres unmarked) [Example 4, 3,4-Dihydro-7-[3-[4-(3-isoxazolyl)-3-methoxy-2-propylphenoxy]propoxy]-8-propyl-2H-1-benzopyran-2-carboxylic acid] | 0.37 | 0.25 |
